Patent US4007184A, “Substituted alkyl esters of quinoxaline-di-N-oxide-2-carboxylic acid” (Pfizer Inc., priority 1975, dated 1977)
In brackets after ≈: the same amount, converted by molar mass. Structures can show the parent of a compound that is named as a salt.

Columns and labels:
Staphylococcus aureus = experiment: in vitro activity (MIC), two-fold serial dilution technique; format: cell-based; conditions: 37° C., approximately 24 hours, method gives concentrations as mcg. of compound per ml., read-out: MIC (Minimal Inhibitory Concentration) S. aureus
Streptococcus pyogenes = experiment: in vivo antibacterial activity against acute infections in mice, oral; conditions: for percent animals which survived, S. pyogenes 50: 50 mg./kg.; for percent animals which survived, S. pyogenes 200: 200 mg./kg.
Protocol: (§1) The in vivo efficacy of the compounds of the instant invention is determined by the antibacterial activity against acute infections in mice. The acute experimental infections are produced by the intraperitoneal inoculation of standardized culture suspended in either 5% hog gastric mucin or broth.
(§2) Stock cultures of test organisms are normally maintained on slants or in liquid medium. When not routinely used they are maintained at refrigerator temperature or in a lyophilized state. When it becomes to use a culture in animal protection tests the culture is suspended in a volume of saline or broth, and the density of the suspension is measured by a photo-electric colorimeter. From this stock, ten-fold dilutions are prepared. Each dilution is inoculated into a series of mice in order to determine the LD100, the LD100 being the lowest concentration of organisms required to produce 100 percent deaths. […] This means that we are using about 10 LD100 or 10 times the minimum dose required to kill mice. Such a test would also include the use of control animals which receive an inoculum of 10^^-4, 10^^-5 and possibly 10^^-6. These dilutions are included as a check on possible variation in virulence which can occur. Having previously determined, through the virulence titration, that 10^^-4 was the maximum dilution that will kill we naturally expect these animals to die, usually within 24 hours.
(§3) Each organism has its own standardized inoculum level. Some, such as Staphylococcus, may be used at 10^^-1, while others like Streptococcus require weekly animal passage in order to maintain virulence.
(§4) When evaluating an antibiotic for its effectiveness after a single dose, the dose is usually administered 0.5 hour after inoculating the mice with the lethal concentration of organisms. In this type of treatment schedule surviving mice are usually held for 4 days after the treatment and the percent alive is calculated.

Escherechia coli [1] = experiment: in vitro activity (MIC), two-fold serial dilution technique; format: cell-based; conditions: Escherichia coli, 37° C., approximately 24 hours, method gives concentrations as mcg. of compound per ml., read-out: MIC (Minimal Inhibitory Concentration) E. coli
Escherechia coli [2] = experiment: in vivo antibacterial activity against acute infections in mice, oral; conditions: for percent animals which survived, E. coli 25 / percent animals which survived, E. coli 100: mice, oral; for percent animals which survived, E. coli 25: 25 mg./kg.; for percent animals which survived, E. coli 100: 100 mg./kg.; for responders at 200 mg/kg / responders at 50 mg/kg: Escherichia coli, in Mus musculus, po, 96 h; for responders at 200 mg/kg: read-out: percent animals which survived, E. coli, *200 mg./kg., mice, oral, 200 mg./kg. (footnote *); for responders at 50 mg/kg: read-out: percent animals which survived, E. coli, **50 mg./kg., mice, oral, 50 mg./kg.
Protocol: as §1, §2, §3, §4

[3] = growth promotion in swine; format: in vivo; conditions: 50 g./ton of feed, 28 days; for Weight Gain Index: control = 100
Protocol: In practice, growth promotion is determined in swine, for instance, by the method wherein young pigs from 5-6 weeks of age and averaging 21.5 lbs. initial body weight are maintained on an ad libitum consumption of water and feed formulation consisting of ground yellow corn (58.1%), soybean meal (19.6%), alfalfa meal (2.0%), dried skim milk (5.0%), dried whey (10.0%), stabilized animal fat (2.5%), limestone (0.6%), dicalcium phosphate (1.1%), iodized salt (0.5%), vitamin premix PPM-5 (0.5%), quadruple delamix (0.05%), and zinc carbonate (156 g./2000 lbs. mix). The pigs are divided into groups of 32 pigs each and are held for a pre-experimental period of 3 days prior to starting the experiment. The quinoxaline-di-N-oxides of the present invention are added to the feed at a ratio of 50 g. of compound per ton of feed. After 28 days the efficacy of said added compounds on growth promotion is measured by a comparison of the growth in terms of weight gain of the treated animals with the untreated control group, which is arbitrarily assigned a weight gain Index of 100. For example, if a compound effects a growth 23% greater than the control group (with an Index of 100) it would be assigned a value of 123, etc.
Employing the previously described procedure for determining growth promotion in animals, the following quinoxaline-di-N-oxides were tested at 50 g./ton of feed in swine for a period of 28 days and provided the following results: […]

[4] = tested on: Salmonella cholerasuis var. kunzendorf; experiment: protection against systemic challenge infection in swine; format: in vivo; conditions: intramuscular, day 10, placebo 83
Protocol: Young, 6-8 week old pigs are conditioned for 14 days in isolation rooms and maintained during the entire study on a basal ration consisting of ground yellow corn (78.4%), soybean meal (15%), alfalfa meal (2%), meat bone scraps (2.5%), limestone (0.4%), dicalcium phosphate (0.65%), iodized salt (0.5%), Vitamin pre-mix PPM-5 (0.5%), quadruple delamix (0.05%) and zinc carbonate (7.8 g./100 lbs. mix). All the pigs, which are divided into groups of six, are inoculated on day 0 with 4 ml. (approximately 2.0 × 10^8 organisms) of the stock inoculating suspension. Treatment with the quinoxaline-di-N-oxides of the present invention is carried out on day 0 and day 1 by intramuscular injection at 12 hour intervals at doses of 2.5 and 5 mg./kg. On day 10 the percent mortality in each group is calculated.

Compound	MIC (Staphylococcus aureus) [µg/mL]	MIC (Escherechia coli [1]) [µg/mL]	responders at 200 mg/kg (Escherechia coli [2]) [%]	responders at 50 mg/kg (Escherechia coli [2]) [%]	further results
Cc1c(C(=O)OCCN(C)C)[n+]([O-])c2ccccc2[n+]1[O-].Cl [H (CH2)2 N(CH3)2.HCl, 3-Methyl-2-quinoxalinecarboxylic acid, 2-(dimethylamino)ethyl ester, 1,4-dioxide hydrochloride]	100	6.25	–	–	percent animals which survived, S. pyogenes 50 (Streptococcus pyogenes): 20%; percent animals which survived, S. pyogenes 200 (Streptococcus pyogenes): 70%; percent animals which survived, E. coli 25 (Escherechia coli [2]): 40%; percent animals which survived, E. coli 100 (Escherechia coli [2]): 100%
CCN(CC)CCCOC(=O)c1c(C)[n+]([O-])c2ccccc2[n+]1[O-].Cl [H (CH2)3 N(C2 H5)2.HCl, 3-Methyl-2-quinoxalinecarboxylic acid, 3-(diethylamino)propyl ester, 1,4-dioxide hydrochloride]	200	12.5	–	–	–
CC(=O)OCCOC(=O)c1c(C)[n+]([O-])c2ccccc2[n+]1[O-] [drawing 85]	–	–	–	–	percent animals which survived, S. pyogenes 50 (Streptococcus pyogenes): 80%; percent animals which survived, S. pyogenes 200 (Streptococcus pyogenes): 80%; percent animals which survived, E. coli 25 (Escherechia coli [2]): 80%; percent animals which survived, E. coli 100 (Escherechia coli [2]): 100%
CCNC(=O)OCCOC(=O)c1c(C)[n+]([O-])c2ccccc2[n+]1[O-] [drawing 89]	–	–	30	40	–
CC(=O)OCCOC(=O)c1c(C)[n+]([O-])c2ccccc2[n+]1[O-] [drawing 103]	–	–	–	–	% Growth Over Control [3]: 53%; Weight Gain Index [3]: 153
Cc1c(C(=O)OCCCN(C)C)[n+]([O-])c2ccccc2[n+]1[O-].Cl [H (CH2)3 N(CH3)2.HCl, 3-Methyl-2-quinoxalinecarboxylic acid, 3-(dimethylamino)propyl ester, 1,4-dioxide hydrochloride]	–	–	–	–	percent animals which survived, S. pyogenes 50 (Streptococcus pyogenes): 20%; percent animals which survived, S. pyogenes 200 (Streptococcus pyogenes): 100%; percent animals which survived, E. coli 25 (Escherechia coli [2]): 40%; percent animals which survived, E. coli 100 (Escherechia coli [2]): 80%
Cc1c(C(=O)OCCOC(=O)CCC(=O)O)[n+]([O-])c2ccccc2[n+]1[O-] [drawing 83]	200 (≈ 549 µM)	> 200	–	–	–
Cc1c(C(=O)OC(C)CN(C)C)[n+]([O-])c2ccccc2[n+]1[O-].Cl (centres unmarked) [H CH(CH3)CH2 N(CH3)2.HCl, 3-Methyl-2-quinoxalinecarboxylic acid, 1-methyl-2-(dimethyl-amino)ethyl ester, 1,4-dioxide hydrochloride]	200	100	–	–	–
CCNC(=O)OCCOC(=O)c1c(C)[n+]([O-])c2ccccc2[n+]1[O-] [drawing 82]	25 (≈ 74.6 µM)	> 200	–	–	–
Cc1c(C(=O)OCCOC(=O)OCC(C)C)[n+]([O-])c2ccccc2[n+]1[O-]	–	–	90	–	–
CCCCCCCCCC(=O)OCCOC(=O)c1c(C)[n+]([O-])c2ccccc2[n+]1[O-]	–	–	100	70	–
CCCCCC(=O)OCCOC(=O)c1c(C)[n+]([O-])c2ccccc2[n+]1[O-]	–	–	90	0	–
Cc1c(C(=O)OCCOC(=O)CCC(=O)O)[n+]([O-])c2ccccc2[n+]1[O-] [drawing 100]	–	–	100	80	–
CCCCCCCC(=O)OCCOC(=O)c1c(C)[n+]([O-])c2ccccc2[n+]1[O-]	–	–	100	50	–
Cc1c(C(=O)OCCN)[n+]([O-])c2ccccc2[n+]1[O-] [H (CH2)2 NH2.HCl, 3-Methyl-2-quinoxalinacarboxylic acid, 2-aminoethyl ester, 1,4-dioxide hydrochloride]	–	–	–	–	% Growth Over Control [3]: 39%; Weight Gain Index [3]: 139; percent animals which survived, S. pyogenes 50 (Streptococcus pyogenes): 30%; percent animals which survived, S. pyogenes 200 (Streptococcus pyogenes): 90%; percent animals which survived, E. coli 25 (Escherechia coli [2]): 100%
Cc1c(C(=O)OCCOC(=O)C[N+](C)(C)C)[n+]([O-])c2ccccc2[n+]1[O-]	–	–	90	40	–
CC(=O)OCCOC(=O)c1c(C)[n+]([O-])c2ccccc2[n+]1[O-] [3-Methyl-2-quinoxalinecarboxylic acid, 2-(acetyloxy)ethyl ester, 1,4-dioxide]	–	–	–	–	% Mortality ([4]; 2.5 mg./kg. × 4 at 12 hour intervals): 67%; % Mortality ([4]; 5.0 mg./kg. × 4 at 12 hour intervals): 17%
CC1(C)S[C@@H]2[C@H](NC(=O)Cc3ccccc3)C(=O)N2[C@H]1C(=O)O [Benzylpenicillin (K Salt), Benzylpenicillin, reference compound]	0.156	> 100	–	–	–
CC(=O)OCCOC(=O)c1c(C)[n+]([O-])c2ccccc2[n+]1[O-] [drawing 80]	12.5 (≈ 40.8 µM)	50 (≈ 163 µM)	–	–	–
CCCC(=O)OCCOC(=O)c1c(C)[n+]([O-])c2ccccc2[n+]1[O-]	–	–	90	80	–
CCN(CC)CC(C)OC(=O)c1c(C)[n+]([O-])c2ccccc2[n+]1[O-] (centres unmarked) [H CH(CH3)CH2 N(C2 H5)2.HCl]	–	–	–	–	percent animals which survived, S. pyogenes 50 (Streptococcus pyogenes): 20%; percent animals which survived, S. pyogenes 200 (Streptococcus pyogenes): 80%; percent animals which survived, E. coli 25 (Escherechia coli [2]): 0%; percent animals which survived, E. coli 100 (Escherechia coli [2]): 60%
CCN(CC)CCOC(=O)c1c(C)[n+]([O-])c2ccccc2[n+]1[O-].Cl [H (CH2)2 N(C2 H5)2.HCl, 3-Methyl-2-quinoxalinecarboxylic acid, 2-(diethylamino)ethyl ester, 1,4-dioxide hydrochloride]	100	12.5	–	–	–
Cc1c(C(=O)OCCOC(=O)CCCC(=O)O)[n+]([O-])c2ccccc2[n+]1[O-]	–	–	90	50	–
CCOC(=O)OCCOC(=O)c1c(C)[n+]([O-])c2ccccc2[n+]1[O-]	–	–	–	–	percent animals which survived, E. coli 100 (Escherechia coli [2]): 30%
CCCCC(=O)OCCOC(=O)c1c(C)[n+]([O-])c2ccccc2[n+]1[O-]	–	–	100	60	–
Cc1c(C(=O)OCCOC(=O)CCl)[n+]([O-])c2ccccc2[n+]1[O-]	–	–	100	100	–
Cc1c(C(=O)OCCO)[n+]([O-])c2ccccc2[n+]1[O-] [H (CH2)2 OH, 3-Methyl-2-quinoxalinecarboxylic acid, 2-hydroxyethyl ester, 1,4-dioxide]	–	–	–	–	percent animals which survived, S. pyogenes 50 (Streptococcus pyogenes): 60%; percent animals which survived, S. pyogenes 200 (Streptococcus pyogenes): 100%; percent animals which survived, E. coli 25 (Escherechia coli [2]): 80%; percent animals which survived, E. coli 100 (Escherechia coli [2]): 100%
CCN(C)CCOC(=O)c1c(C)[n+]([O-])c2ccccc2[n+]1[O-].Cl [H (CH2)2 N(CH3)C2 H5.HCl, 3-Methyl-2-quinoxalinecarboxylic acid, 2-(methylethylamino)-ethyl ester, 1,4-dioxide hydrochloride]	100	12.5	–	–	percent animals which survived, S. pyogenes 50 (Streptococcus pyogenes): 60%; percent animals which survived, S. pyogenes 200 (Streptococcus pyogenes): 100%; percent animals which survived, E. coli 25 (Escherechia coli [2]): 0%; percent animals which survived, E. coli 100 (Escherechia coli [2]): 80%
CCC(=O)OCCOC(=O)c1c(C)[n+]([O-])c2ccccc2[n+]1[O-]	–	–	90	80	–
CCCCCCC(=O)OCCOC(=O)c1c(C)[n+]([O-])c2ccccc2[n+]1[O-]	–	–	100	10	–
